# Laboratory results: PMC8991007, “Benzylic Dehydroxylation of Echinocandin Antifungal Drugs Restores Efficacy against Resistance Conferred by Mutated Glucan Synthase” (Journal of the American Chemical Society, 2022)
# Where two headings read alike, the source gives them in different places. *1 amine or outer side, *2 acyl side, *3 side chain or, on linkers, in order; H or OH if unused. Where a SMILES comes first, the peptide text is derived from it. Bridges are numbered along the chain shown (N, C = ends). [ ]: non-standard residue; d: D form. The star is where a group is joined. Orn(4R-OH,5R-OCH2CH2NMe3+) = C[N+](C)(C)CCO[C@@H](N[*:3])[C@H](O)C[C@H](N[*:1])C(=O)[*:2]; pTerphenylCO(4''-OnC5H11) = CCCCCOc1ccc(-c2ccc(-c3ccc(C(=O)*)cc3)cc2)cc1; hTyr(3S-OH,4S-OH) = N[C@H](C(=O)O)[C@H](O)[C@@H](O)c1ccc(O)cc1; Pro(3S-OH,4S-Me) = C[C@H]1CN[C@H](C(=O)O)[C@H]1O; hTyr(3R-OH) = N[C@H](C(=O)O)[C@H](O)Cc1ccc(O)cc1; Hyp = O=C(O)[C@@H]1C[C@@H](O)CN1
# Columns and labels:
# C. albicans = experiment: Minimum inhibitory concentration broth double-dilution assay; format: cell-based, Candida albicans; conditions: for MIC: 24 h, 30 °C
# Protocol: (§1) The antifungal activities of compounds 1 and 2 were evaluated against a panel of 50 strains of C. albicans and C. glabrata (Table S4), including echinocandin-resistant strains that were constructed by introducing mutations within and near the defined hotspots in the FKS1 and/or FKS2 genes.[27] To evaluate antifungal activity, we determined MIC values. The MIC was defined as the lowest drug concentration that led to turbidity (measured at 600 nm) of less than or equal to 35% of that of the untreated culture. As controls, we tested CSF, MCF, ANF, and RZF.
# (§2) All of the tested compounds were dissolved in anhydrous DMSO to a concentration of 5 mg/mL. Candida strains were streaked from a glycerol stock onto YPAD agar plates and grown for 24 h at 30 °C. Colonies were suspended in 1 mL of PBS and diluted to an O.D. of 0.01 at 600 nm with YPAD broth and added into flat-bottom 96-well microplates (Corning) containing a gradient of twofold dilutions per tested compound with concentrations ranging from 64 to 0.0009 μg/mL. Control wells with no drug and blank wells without yeast cells containing YPAD only were also prepared. […] Each concentration was tested in triplicate, and results were confirmed by at least two independent sets of experiments.
# C. glabrata = experiment: as above; format: cell-based, Candida glabrata; conditions: 24 h, 30 °C
# Protocol: as §1, §2
# HCT-116 = experiment: cells; format: cell-based; conditions: Homo sapiens; HCT-116 expressing GFP, 24 h, mean ± SD; read-out: IC50 (cell viability)
# Protocol: (§3) In this analysis, we used HCT-116, a human colorectal carcinoma cell line; UACC-62, a human melanoma cell line; Hs 578T, a human mammary gland carcinoma cell line, and SF-295, a human glioblastoma cell line. […] The highest concentration of the echinocandins used for the cell viability tests was determined based on the reported maximal plasma concentrations (Cmax) of ANF and RZF measured in humans. A Cmax of approximately 7 μM was measured during a pharmacokinetic study of ANF in patients with candidemia or invasive candidiasis who were treated with a 200 mg loading dose on day 1, followed by a daily 100 mg maintenance dose.[64]
# (§4) Human cell lines HCT-116, UACC-62, Hs 578T, and SF-295 were obtained from the Life Sciences Core Facilities of the Nancy & Stephen Grand Israel National Center for Personalized Medicine. Cell lines were grown in an RPMI medium (Gibco, cat. no. 21875-034) supplemented with 10% fetal calf serum (Biological Industries, cat. no. 04-007-1A), Pen/Strep (Biological Industries, cat. no. 03-031-1B), and glutamine (Biological Industries, cat. no. 03-020-1B). GFP was introduced into cells using TALENS according to a previously reported protocol.[73] GFP cells were selected by FACS and propagated.
# (§5) Assay-ready plates were designed using in-house software (CHEMPION, INCPM software development team) and prepared in 384-well Greiner plates (cat. no. 781091) using an Echo 555 Acoustic Liquid Handler (Labcyte). The final DMSO concentration in all samples was 0.4%. Prior to the experiment, cells were trypsinized and counted using a Countess cytometer. Cells were then diluted to 40,000 cells/mL in a fresh medium. Cells (50 μL/well; 2000 cells/well) were then dispensed with a Thermo Combi dispenser into plates containing predispensed compounds. After 30 min at room temperature to ensure uniform adherence of cells, the plates were moved to an automated incubator (Liconic STX44) and incubated at 37 °C. An automated confocal microscope with a 4× S Fluor lens (Molecular Devices ImageExpress) was used to acquire images of GFP-expressing cells after 24 h of incubation. Images were then analyzed using MetaExpress with a custom protocol (Custom Module Editor), and data were annotated and normalized using Genedata Screener software. Final normalized data were then loaded into CDD Vault software for comparative data visualization.
# SF-295 = experiment: cells; format: cell-based; conditions: Homo sapiens; SF-295 expressing GFP, 24 h, mean ± SD; read-out: IC50 (cell viability)
# Protocol: as §3, §4, §5
# UACC-62 = experiment: cells; format: cell-based; conditions: Homo sapiens; UACC-62 expressing GFP, 24 h, mean ± SD; read-out: IC50 (cell viability)
# Protocol: as §3, §4, §5
# THLE-2 cells = experiment: cells; format: cell-based; conditions: Homo sapiens
# Protocol: The effects of ANF and RZF and their dehydroxylated derivatives 1 and 2 on the viability of human cells were further evaluated in an assay with THLE-2 cells, which are a transformed human liver epithelial cell line. These cells express phenotypic characteristics of normal adult liver epithelial cells.
# THLE-2 cells (ATCC, cat. no. CRL2706) were cultured in 384-well plates coated with BEBM (Lonza, cat. no CC3170) containing 100 μg/mL BSA, 1:100 fibronectin (Sigma, cat. no. F0895), and a 1:100 PureCol EZ Gel Solution (Sigma, cat. no. 5074) for 50–60 min at 37 °C. THLE-2 cells were plated at a density of 2.5 × 10^3 cells/well in the coated plates in a total volume of 20 μL. Culture media were BEGM supplemented with 5 ng/mL hEGF (Sigma, cat. no. E5036), 70 ng/mL phosphoethanolamine (Sigma, cat. no. P0503), and 10% fetal bovine serum. Plates were incubated overnight at 37 °C, 95% humidity, and 5% CO2. The culture medium was replaced with 50 μL of a fresh medium, and compounds were applied to the cells in triplicate. Plates were cultured for another 72 h, and ATP was quantified using a CellTiter-Glo kit (Promega #G7573) according to the manufacturer’s protocol. The luminescence signal was detected using a PHERAstar FS (BMG Labtech).
# [1] = #2 C. albicans DPL1015 (DP-A15)
# [2] = #3 C. albicans DPL1016 (DP-A15-10)
# [3] = THLE-2, 72 h of incubation, ranges for ANF and 1 and for RZF and 2 stated jointly, read-out: IC50 value (THLE-2 viability)
# [4] = THLE-2, 72 h, ATP luminescence, read-out: IC50 (cell viability)
compound,measurement,setting,value
"CCCCCOc1ccc(-c2ccc(-c3ccc(C(=O)N[C@H]4C[C@@H](O)[C@@H](OCC[N+](C)(C)C)NC(=O)[C@@H]5[C@@H](O)[C@@H](C)CN5C(=O)[C@H]([C@@H](C)O)NC(=O)[C@H]([C@H](O)Cc5ccc(O)cc5)NC(=O)[C@@H]5C[C@@H](O)CN5C(=O)[C@H]([C@@H](C)O)NC4=O)cc3)cc2)cc1 [Compound 2, dehydroxy-RZF] ({pTerphenylCO(4''-OnC5H11)}-[Orn(4R-OH,5R-OCH2CH2NMe3+)]T[Hyp][hTyr(3R-OH)]T[Pro(3S-OH,4S-Me)]; lactam 1-C)",MIC,C. albicans; #1 C. albicans Sc5314,0.015 µg/mL
same,MIC,C. albicans; [1],0.062 µg/mL
same,MIC,C. albicans; [2],2 µg/mL
same,MIC,C. albicans; #4 C. albicans T-2068 (DP-C42),0.5 µg/mL
same,MIC,C. albicans; #5 C. albicans T-2069 (DP-85),0.5 µg/mL
same,MIC,C. albicans; #6 C. albicans (DP-89),1 µg/mL
same,MIC,C. albicans; #7 C. albicans T-2076 (DP-194),1 µg/mL
same,MIC,C. albicans; #8 C. albicans T-2077 (DP-205),0.25 µg/mL
same,MIC differences between RZF and dehydroxy derivative 2 (ratio MIC (RZF)/MIC (2)),"C. albicans; C. albicans strains 5 and 6, Fks1 serine 645 to phenylalanine or tyrosine",at least 8 fold
same,MIC,C. glabrata; #9 C. glabrata EF1620,0.015 µg/mL
same,MIC,C. glabrata; #10 C. glabrata TGL00277,16 µg/mL
same,MIC,C. glabrata; #11 C. glabrata TGL00275,8 µg/mL
same,MIC,C. glabrata; #12 C. glabrata CST78,0.004 µg/mL
same,MIC,C. glabrata; #13 C. glabrata TGL00265,2 µg/mL
same,MIC,C. glabrata; #14 C. glabrata TGL00264,32 µg/mL
same,MIC,C. glabrata; #15 C. glabrata TGL00263,2 µg/mL
same,MIC,C. glabrata; #16 C. glabrata TGL00065,8 µg/mL
same,MIC,C. glabrata; #17 C. glabrata CST34,0.004 µg/mL
same,MIC,C. glabrata; #18 C. glabrata TGL00258,8 µg/mL
same,MIC,C. glabrata; #19 C. glabrata TGL00256,0.25 µg/mL
same,MIC,C. glabrata; #20 C. glabrata TGL00107,16 µg/mL
same,MIC,C. glabrata; #21 C. glabrata TGL00056,> 64 µg/mL
same,MIC,C. glabrata; #22 C. glabrata M12,0.002 µg/mL
same,MIC,C. glabrata; #23 C. glabrata TGL00270,4 µg/mL
same,MIC,C. glabrata; #24 C. glabrata TGL00269,0.063 µg/mL
same,MIC,C. glabrata; #25 C. glabrata TGL00268,> 64 µg/mL
same,MIC,C. glabrata; #26 C. glabrata TGL00268,> 64 µg/mL
same,MIC,C. glabrata; #27 C. glabrata EB0911,0.004 µg/mL
same,MIC,C. glabrata; #28 C. glabrata TGL00261,1 µg/mL
same,MIC,C. glabrata; #29 C. glabrata TGL00109,64 µg/mL
same,MIC,C. glabrata; #30 C. glabrata TGL00259,8 µg/mL
same,MIC,C. glabrata; #31 C. glabrata EF1237,0.002 µg/mL
same,MIC,C. glabrata; #36 C. glabrata F15,0.004 µg/mL
same,MIC,C. glabrata; #38 C. glabrata CBS138 (ATCC 2001),0.008 µg/mL
same,MIC,C. glabrata; #41 C. glabrata P35_2,0.004 µg/mL
same,MIC,C. glabrata; #43 C. glabrata SLL2glab,0.008 µg/mL
same,MIC,C. glabrata; #46 C. glabrata BG2,0.008 µg/mL
same,IC50,HCT-116,34.1 ± 11.5 µM
same,IC50,SF-295,32.4 ± 6.7 µM
same,IC50,UACC-62,29.2 ± 5.2 µM
same,IC50,THLE-2 cells; [3],36 to 77 µM
same,IC50,THLE-2 cells; [4],55.9 ± 3 µM
"CCCCCOc1ccc(-c2ccc(-c3ccc(C(=O)N[C@H]4C[C@@H](O)[C@@H](OCC[N+](C)(C)C)NC(=O)[C@@H]5[C@@H](O)[C@@H](C)CN5C(=O)[C@H]([C@@H](C)O)NC(=O)[C@H]([C@H](O)[C@@H](O)c5ccc(O)cc5)NC(=O)[C@@H]5C[C@@H](O)CN5C(=O)[C@H]([C@@H](C)O)NC4=O)cc3)cc2)cc1 [RZF, rezafungin] ({pTerphenylCO(4''-OnC5H11)}-[Orn(4R-OH,5R-OCH2CH2NMe3+)]T[Hyp][hTyr(3S-OH,4S-OH)]T[Pro(3S-OH,4S-Me)]; lactam 1-C)",MIC,C. albicans; #1 C. albicans Sc5314,0.015 µg/mL
same,MIC,C. albicans; [1],0.25 µg/mL
same,MIC,C. albicans; [2],4 µg/mL
same,MIC,C. albicans; #4 C. albicans T-2068 (DP-C42),2 µg/mL
same,MIC,C. albicans; #5 C. albicans T-2069 (DP-85),8 µg/mL
same,MIC,C. albicans; #6 C. albicans (DP-89),8 µg/mL
same,MIC,C. albicans; #7 C. albicans T-2076 (DP-194),1 µg/mL
same,MIC,C. albicans; #8 C. albicans T-2077 (DP-205),1 µg/mL
same,MIC,C. glabrata; #9 C. glabrata EF1620,0.015 µg/mL
same,MIC,C. glabrata; #10 C. glabrata TGL00277,64 µg/mL
same,MIC,C. glabrata; #11 C. glabrata TGL00275,16 µg/mL
same,MIC,C. glabrata; #12 C. glabrata CST78,0.008 µg/mL
same,MIC,C. glabrata; #13 C. glabrata TGL00265,16 µg/mL
same,MIC,C. glabrata; #14 C. glabrata TGL00264,32 µg/mL
same,MIC,C. glabrata; #15 C. glabrata TGL00263,32 µg/mL
same,MIC,C. glabrata; #16 C. glabrata TGL00065,> 64 µg/mL
same,MIC,C. glabrata; #17 C. glabrata CST34,0.008 µg/mL
same,MIC,C. glabrata; #18 C. glabrata TGL00258,> 64 µg/mL
same,MIC,C. glabrata; #19 C. glabrata TGL00256,4 µg/mL
same,MIC,C. glabrata; #20 C. glabrata TGL00107,> 64 µg/mL
same,MIC,C. glabrata; #21 C. glabrata TGL00056,> 64 µg/mL
same,MIC,C. glabrata; #22 C. glabrata M12,0.008 µg/mL
same,MIC,C. glabrata; #23 C. glabrata TGL00270,> 64 µg/mL
same,MIC,C. glabrata; #24 C. glabrata TGL00269,1 µg/mL
same,MIC,C. glabrata; #25 C. glabrata TGL00268,> 64 µg/mL
same,MIC,C. glabrata; #26 C. glabrata TGL00268,> 64 µg/mL
same,MIC,C. glabrata; #27 C. glabrata EB0911,0.015 µg/mL
same,MIC,C. glabrata; #28 C. glabrata TGL00261,16 µg/mL
same,MIC,C. glabrata; #29 C. glabrata TGL00109,64 µg/mL
same,MIC,C. glabrata; #30 C. glabrata TGL00259,> 64 µg/mL
same,IC50,HCT-116,> 40 µM
same,IC50,SF-295,> 40 µM
same,IC50,UACC-62,> 40 µM
same,IC50,THLE-2 cells; [3],36 to 77 µM
same,IC50,THLE-2 cells; [4],76.6 ± 4.8 µM
